In PubChem BioAssay AID383 (SGCOxCompounds, 2006):

Target: Dual specificity protein kinase CLK3 (Homo sapiens) (UniProt P49761)
Assay: ligand binding to human CDC-like kinase 3 – biophysical, thermal shift, recombinant protein (AID 383)
Conditions: at 10 µM, protein 1.5 µM, buffer 10 mM HEPES, pH 7.5, NaCl 150 mM, with 50 µM L-Arg/L-Glu (1:1), stronger effect = higher value

Dual specificity protein kinase CLK3 (Homo sapiens), sequence (P49761 whole entry, looked up): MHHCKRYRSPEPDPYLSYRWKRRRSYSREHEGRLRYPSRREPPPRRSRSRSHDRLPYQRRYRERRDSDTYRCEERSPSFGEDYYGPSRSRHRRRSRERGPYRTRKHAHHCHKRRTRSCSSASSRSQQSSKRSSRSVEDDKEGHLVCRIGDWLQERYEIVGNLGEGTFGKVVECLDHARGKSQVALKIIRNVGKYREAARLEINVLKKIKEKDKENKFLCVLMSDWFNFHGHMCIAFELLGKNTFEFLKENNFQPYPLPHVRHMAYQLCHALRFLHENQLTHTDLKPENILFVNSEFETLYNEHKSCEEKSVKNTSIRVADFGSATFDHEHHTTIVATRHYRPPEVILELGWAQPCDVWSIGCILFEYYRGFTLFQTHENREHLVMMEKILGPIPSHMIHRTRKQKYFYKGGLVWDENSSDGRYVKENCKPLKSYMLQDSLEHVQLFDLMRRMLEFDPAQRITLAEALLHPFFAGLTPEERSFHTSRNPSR

SMILES	Tm shift
Cc1[nH]c(/C=C2\C(=O)Nc3ccc(S(=O)(=O)N(C)c4cccc(Cl)c4)cc32)c(C)c1C(=O)N1CCN(C)CC1	3.7 Celsius
O=C1NC(=O)C(c2c[nH]c3ccccc23)=C1c1c[nH]c2ccccc12	3.2 Celsius
N#C/C(=C1\Nc2ccccc2S1)c1ccnc(NCCc2cccnc2)n1	4.9 Celsius
OCC(O)CCO/N=C1/C(c2c(O)[nH]c3ccccc23)=Nc2ccccc21 (stereo not drawn)	4 Celsius
Cc1cc(Nc2nc(-c3ccccc3)nc3ccccc23)n[nH]1	4.1 Celsius
O=C(c1ccc(Nc2nccc(-c3cc4ccccc4s3)n2)cc1)N1CCC(N2CCCC2)CC1	6.3 Celsius
O=Nc1c(-c2c(O)[nH]c3ccc(S(O)(O)O)cc23)[nH]c2ccccc12	4.7 Celsius
O=Nc1c(-c2c(O)[nH]c3ccc(I)cc23)[nH]c2ccccc12	4.5 Celsius

Same assay, conditions: at 10 µM, protein 1.7 µM, buffer 10 mM HEPES, pH 7.5, NaCl 150 mM, with 50 µM L-Arg/L-Glu (1:1), stronger effect = higher value

SMILES	Tm shift
COc1ccc(Nc2nc(N)c(C(=O)c3ccc(OC)cc3)s2)cc1	4.3 Celsius
COc1ccc(Nc2nc(N)c(C(=O)c3ccc(Cl)cc3)s2)cc1	3.7 Celsius
Nc1nc(Nc2cccc(Cl)c2)sc1C(=O)c1ccc(F)cc1	3.4 Celsius
Nc1nc(Nc2ccc(F)cc2)sc1C(=O)c1ccccc1	3.2 Celsius

Same assay, conditions: at 10 µM, protein 1.8 µM, buffer 10 mM HEPES, pH 7.5, NaCl 150 mM, with 50 µM L-Arg/L-Glu (1:1), stronger effect = higher value

SMILES	Tm shift
COc1cc(/C=C/C(=O)CC(=O)/C=C/c2ccc(O)c(OC)c2)ccc1O	5.3 Celsius
Nc1ncnc2c1c(I)cn2[C@@H]1O[C@H](CO)C(O)C1O (stereo partly drawn)	7.5 Celsius
CN(C)S(O)(O)c1ccc2c(c1)/C(=C/c1cc3c([nH]1)CCCC3)C(=O)N2	4.1 Celsius
CC1N=C2SC=CN2C(=O)C1CCN1CCC(=C(c2ccccc2)c2ccc(F)cc2)CC1 (stereo not drawn)	3.8 Celsius
NC(=O)c1ccc(-c2nc(-c3ccc4c(c3)OCCO4)c(-c3ccccn3)[nH]2)cc1	4.8 Celsius
CN(C)CCCn1cc(C2=C(c3c[nH]c4ccccc34)C(=O)NC2=O)c2ccccc21	3.5 Celsius
O=Nc1c(-c2c(O)[nH]c3ccccc23)[nH]c2ccccc12	4.6 Celsius
Cn1cc(/C=C2\C(=O)Nc3ccc(S(N)(=O)=O)cc32)c2ccccc21	3.2 Celsius
O=c1cc(-c2ccc(O)cc2)oc2cc(O)cc(O)c12	3.1 Celsius
CC(C)n1cnc2c(Nc3cccc(Cl)c3)nc(NCCO)nc21	4.6 Celsius
NC1=N/C(=C2/CCNC(=O)c3[nH]c(Br)cc32)C(=O)N1	7.2 Celsius
Cc1c2ccncc2c(C)c2c1[nH]c1ccccc12	4.2 Celsius

Same assay, conditions: at 10 µM, protein 2 µM, buffer 10 mM HEPES, NaCl 150 mM, with 50 mM Arg/Glu, stronger effect = higher value

SMILES	Tm shift
CC(=O)Nc1cccc(-c2cnc3ccc(N[C@H](CO)C(C)C)nn23)c1	4.32 Celsius
CC(C)C(CO)Nc1nc(Nc2cccc(Cl)c2)c2ncn(C(C)C)c2n1 (stereo not drawn)	3.88 Celsius
Nc1ncnc2c1c(I)cn2[C@@H]1O[C@H](CO)C(O)C1O (stereo partly drawn)	7.25 Celsius
CC(=O)c1cccc(-c2cnc3ccc(N[C@H](CO)C(C)C)nn23)c1	3.77 Celsius
Nc1nc(Nc2ccc(S(N)(=O)=O)cc2)nn1C(=S)Nc1c(F)cccc1F	15.1 Celsius
CCC(CO)Nc1ccc2ncc(-c3ccc(C(=O)O)cc3)n2n1 (stereo not drawn)	3.99 Celsius
CC(C)[C@@H](CO)Nc1ccc2ncc(-c3ccc(C#N)cc3)n2n1	4.58 Celsius
NC1=N/C(=C2\CCNC(=O)c3[nH]ccc32)C(=O)N1	4.35 Celsius
CCC(CO)Nc1ccc2ncc(-c3ccc(O)cc3)n2n1 (stereo not drawn)	4.43 Celsius
N=C(N)SCCCn1cc(C2=C(c3c[nH]c4ccccc34)C(=O)NC2=O)c2ccccc21	3.37 Celsius
CC(C)n1cnc2c(Nc3cccc(Cl)c3)nc(NCCO)nc21	3.76 Celsius
NC1=N/C(=C2/CCNC(=O)c3[nH]c(Br)cc32)C(=O)N1	8.87 Celsius
O=c1c(O)c(-c2ccc(O)c(O)c2)oc2cc(O)cc(O)c12	4.2 Celsius

Same assay, conditions: at 10 µM, protein 2 µM, buffer 10 mM HEPES, pH 7.5, NaCl 150 mM, stronger effect = higher value

SMILES	Tm shift
N#Cc1ccc(-c2cnc3ccc(NC4CCOCC4)nn23)cc1	3.76 Celsius
CC(C)[C@@H](CO)Nc1ccc2ncc(-c3cccc(OC(F)(F)F)c3)n2n1	4.02 Celsius
CC(C)[C@@H](CO)Nc1ccc2ncc(-c3cccc(O)c3)n2n1	4.02 Celsius
CCC(CO)Nc1ccc2ncc(-c3ccc(F)c(Cl)c3)n2n1 (stereo not drawn)	3.6 Celsius
CCC(CO)Nc1ccc2ncc(-c3ccc(OC)nc3)n2n1 (stereo not drawn)	4.48 Celsius
Nc1ccc(-c2cnn3ccc(Nc4cccc(Cl)c4)nc23)cc1	3.58 Celsius
CCC(CO)Nc1ccc2ncc(-c3cccc(OC(F)(F)F)c3)n2n1 (stereo not drawn)	3.66 Celsius
CCC(CO)Nc1ccc2ncc(-c3cccc(C(C)=O)c3)n2n1 (stereo not drawn)	3.42 Celsius
Clc1cccc(Nc2ccn3ncc(-c4ccc5c(c4)OCO5)c3n2)c1	6.07 Celsius
COc1cccc(-c2cnn3ccc(Nc4cccc(Cl)c4)nc23)c1	4.61 Celsius

Same assay, conditions: at 10 µM, protein 2 µM, buffer 50 mM HEPES, pH 7.5, NaCl 500 mM, stronger effect = higher value

SMILES	Tm shift
CCN1/C(=C/C(C)=O)Sc2ccc(OC)cc21	3.16 Celsius
O=c1c(O)c(-c2cc(O)c(O)c(O)c2)oc2cc(O)cc(O)c12	3.25 Celsius
O=C1C(=O)C(c2cc(O)c(O)c(O)c2)Oc2cc(O)cc(O)c21 (stereo not drawn)	3.08 Celsius
NCCCn1cc(C2=C(c3c[nH]c4ccccc34)C(=O)NC2=O)c2ccccc21	3.18 Celsius
O=c1cc(-c2ccc(O)c(O)c2)oc2cc(O)cc(O)c12	4.28 Celsius
O=c1c(O)c(-c2ccc(O)c(O)c2)oc2cc(O)cc(O)c12	3.12 Celsius
